{
  "source": "patent US20080269114A1",
  "about": "“Y4 Selective Receptor Agonists For Thereapeutic Interventions” (priority 2004, published 2008)",
  "key": {"human Y1 receptor": {"biological_target": "T1, human Y1 receptor (Homo sapiens, UniProt P25929)", "T1 construct": "expressed in transfected cells; host or cells: COS-7", "T1 sequence (P25929 1-384)": "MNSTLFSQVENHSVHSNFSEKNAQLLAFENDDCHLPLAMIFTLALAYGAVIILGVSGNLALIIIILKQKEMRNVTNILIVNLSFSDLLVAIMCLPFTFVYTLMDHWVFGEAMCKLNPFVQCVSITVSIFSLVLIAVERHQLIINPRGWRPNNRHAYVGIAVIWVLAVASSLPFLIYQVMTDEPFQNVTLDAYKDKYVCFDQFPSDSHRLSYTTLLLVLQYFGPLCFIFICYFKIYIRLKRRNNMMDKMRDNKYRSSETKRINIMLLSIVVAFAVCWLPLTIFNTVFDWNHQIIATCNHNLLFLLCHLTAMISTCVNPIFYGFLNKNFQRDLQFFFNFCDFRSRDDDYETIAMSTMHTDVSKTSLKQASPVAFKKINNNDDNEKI", "assay": "Human Y1 receptor potency assay (inositol phosphate turnover, COS-7 cells)", "format": "cell-based", "conditions": "relative to PP", "experimental": "Potency of the test compounds on the human Y2 receptor is determined by performing dose-response experiments in COS-7 cells transiently transfected with the human Y2 receptor as well as a promiscuous G protein, Gqi5 which ensures that the Y2 receptor couples through a Gq pathway leading to an increase in inositol phosphate turnover.\nCells are washed twice in buffer, 20 mM HEPES, pH 7.4, supplemented with 140 mM NaCl, 5 mM KCl, 1 mM MgSO4, 1 mM CaCl2, 10 mM glucose, 0.05% (w/v) bovine serum; and are incubated in 0.5 ml buffer supplemented with 10 mM LiCl at 37 C for 30 min. After stimulation with various concentrations of peptide for 45 min at 37 C, cells are extracted with 10% ice-cold perchloric acid followed by incubation on ice for 30 min. The resulting supernatants are neutralized with KOH in HEPES buffer, and the generated [3H]-inositol phosphate are purified on Bio-Rad AG 1-X8 anion-exchange resin and counted in a beta counter. Determinations are made in duplicates. EC50 values were calculated using a standard pharmacological data handling software, Prism 3.0 (graphPad Sofware, San Diego, USA).\nProtocol as for the Y2 potency assay, except that human Y1-transformed COS-7 cells are used."}, "food intake": {"test_system": "food intake", "assay": "Effect of Y4 selective agonists on acute food intake in mice", "format": "in vivo, mice (ddy strain)", "experimental": ". In FIG. 2 is shown the accumulated food intake of the mice during 8 hours. […] The 50% suppressive effect on food intake was observed also when this was measured during the first full hour.\nEffect of Y4 Selective Agonists on Acute Food Intake in Mice\nThe ddy strain of mice were used, 34-37 g and 8-9 weeks of age (Japan SLC, Shizuuoka, Japan). The mice were individually house in a regulated environment (22 C, 55% humidity) in a 12-hour light-dark cycle with light on at 7 AM. Food and water were available ad libitum except just before experiments (see below). The mice were acclimatized to subcutaneous injections during the week before experiments started. Mice were used once each in the experiments. Just before administration the peptides were diluted in physiological saline and administered in 100 μL volume for subcutaneous administration. Results are expressed as mean±SE. Analysis of variance followed by Bonferroni's test were used to assess differences among groups.\nMice were deprived of food but with free access to water for 16 hours prior to the actual test and experiments were started at 10 AM on the following day. A standard diet was used (CLEA Japan, Inc., Tokyo, Japan) and food intake was measured by subtracting uneaten food from the initially premeausured food after administration and checking for food spillage."}, "human Y4 receptor": {"biological_target": "T2, human Y4 receptor (Homo sapiens, UniProt P50391)", "T2 construct": "expressed in transfected cells; host or cells: COS-7", "T2 sequence (P50391 whole entry)": "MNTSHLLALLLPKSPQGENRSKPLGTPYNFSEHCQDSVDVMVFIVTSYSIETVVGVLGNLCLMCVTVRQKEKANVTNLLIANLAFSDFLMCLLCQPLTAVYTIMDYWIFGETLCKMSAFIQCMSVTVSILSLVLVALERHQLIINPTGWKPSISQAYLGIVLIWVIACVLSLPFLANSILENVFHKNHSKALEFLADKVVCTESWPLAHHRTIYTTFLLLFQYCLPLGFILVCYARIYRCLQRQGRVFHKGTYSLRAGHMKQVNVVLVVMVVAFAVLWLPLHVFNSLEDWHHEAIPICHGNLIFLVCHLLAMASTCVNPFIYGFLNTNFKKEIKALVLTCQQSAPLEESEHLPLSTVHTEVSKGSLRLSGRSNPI", "assay": "Human Y4 receptor potency assay (inositol phosphate turnover, COS-7 cells)", "format": "cell-based", "conditions": "relative to PP", "experimental": "After stimulation with various concentrations of peptide for 45 min at 37 C, cells are extracted with 10% ice-cold perchloric acid followed by incubation on ice for 30 min. The resulting supernatants are neutralized with KOH in HEPES buffer, and the generated [3H]-inositol phosphate are purified on Bio-Rad AG 1-X8 anion-exchange resin and counted in a beta counter. Determinations are made in duplicates. EC50 values were calculated using a standard pharmacological data handling software, Prism 3.0 (graphPad Sofware, San Diego, USA)."}},
  "data": [
    {"smiles": "CC[C@H](C)[C@H](NC(=O)[C@H](Cc1ccc(O)cc1)NC(=O)[C@H](CCCNC(=N)N)NC(=O)[C@H](CCCNC(=N)N)NC(=O)[C@H](CC(C)C)NC(=O)[C@H](CC(=O)O)NC(=O)[C@H](C)NC(=O)[C@H](C)NC(=O)[C@H](Cc1ccc(O)cc1)NC(=O)[C@H](CCC(N)=O)NC(=O)[C@H](C)NC(=O)[C@H](CCSC)NC(=O)[C@H](CCC(N)=O)NC(=O)[C@H](CCC(=O)O)NC(=O)[C@@H]1CCCN1C(=O)[C@@H](NC(=O)[C@H](C)NC(=O)[C@H](CC(N)=O)NC(=O)[C@H](CC(=O)O)NC(=O)CNC(=O)[C@@H]1CCCN1C(=O)[C@H](Cc1ccc(O)cc1)NC(=O)[C@@H](NC(=O)[C@@H]1CCCN1C(=O)[C@H](CCC(=O)O)NC(=O)[C@H](CC(C)C)NC(=O)[C@@H]1CCCN1)C(C)C)[C@@H](C)O)C(=O)N[C@@H](CC(N)=O)C(=O)N[C@@H](CCSC)C(=O)N[C@@H](CC(C)C)C(=O)N[C@H](C(=O)N[C@@H](CCCNC(=N)N)C(=O)N1CCC[C@H]1C(=O)N[C@@H](CCCNC(=N)N)C(=O)N[C@@H](Cc1ccc(O)cc1)C(N)=O)[C@@H](C)O", "note": "[PP2-36]", "values": [
      {"measurement": "potency on the Y1 receptor lower than that of PP", "setting": "human Y1 receptor", "result": "3-4 fold"},
      {"measurement": "period for which the suppressive effect on food intake was sustained", "setting": "food intake; after the single subcutaneous injection", "result": 8, "unit": "h"},
      {"measurement": "suppressive effect on food intake", "setting": "food intake; first full hour, single subcutaneous injection, 16 hours fasted mice", "result": 50, "unit": "%"}
    ]},
    {"smiles": "CC[C@H](C)[C@H](NC(=O)[C@H]1CSSC[C@H](NC(=O)[C@H](C)N)C(=O)N[C@@H](CC(C)C)C(=O)N[C@@H](CCC(=O)O)C(=O)N2CCC[C@H]2C(=O)N[C@@H](C(C)C)C(=O)N[C@@H](Cc2ccc(O)cc2)C(=O)N2CCC[C@H]2C(=O)NCC(=O)N[C@@H](CC(=O)O)C(=O)N[C@@H](CC(N)=O)C(=O)N[C@@H](C)C(=O)N[C@@H]([C@@H](C)O)C(=O)N2CCC[C@H]2C(=O)N[C@@H](CCC(=O)O)C(=O)N[C@@H](CCC(N)=O)C(=O)N[C@@H](CCSC)C(=O)N[C@@H](C)C(=O)N[C@@H](CCC(N)=O)C(=O)N[C@@H](Cc2ccc(O)cc2)C(=O)N[C@@H](C)C(=O)N[C@@H](C)C(=O)N[C@@H](CC(=O)O)C(=O)N[C@@H](CC(C)C)C(=O)N[C@@H](CCCNC(=N)N)C(=O)N[C@@H](CCCNC(=N)N)C(=O)N1)C(=O)N[C@@H](CC(N)=O)C(=O)N[C@@H](CCSC)C(=O)N[C@@H](CC(C)C)C(=O)N[C@H](C(=O)N[C@@H](CCCNC(=N)N)C(=O)N1CCC[C@H]1C(=O)N[C@@H](CCCNC(=N)N)C(=O)N[C@@H](Cc1ccc(O)cc1)C(N)=O)[C@@H](C)O", "note": "[[Cys2,D-Cys27]PP]", "values": [
      {"measurement": "potency on the Y4 receptor lower than that of PP", "setting": "human Y4 receptor", "result": 7, "unit": "fold"}
    ]}
  ]
}
